In patent publication US9795140B2, “Molecules having pesticidal utility, and intermediates, compositions, and processes, related thereto” (priority 2015, dated 2017):

What was measured:
Format in all cases: in vivo
[1] = tested on: Beet Armyworm (Spodoptera exigua, LAPHEG); experiment: Bioassay on Beet Armyworm (BAW), 128-well diet tray assay; settings: 168 h, 50 μg/cm^2 on artificial diet, second instar larvae, 25° C., five to seven days, average of eight wells, read-out: BAW % Control (or Mortality) rating
Procedure, shortened: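 Second-instar larvae, one to five per well, placed on artificial diet surface-treated with 50 μg/cm^2 compound applied in 90:10 acetone-water and dried. Held 5–7 days at 25° C., 14:10 light-dark. Percent mortality recorded per well and averaged over eight wells.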

[2] = tested on: Cabbage Looper (Trichoplusia ni, TRIPNI); experiment: Bioassay on Cabbage Looper (CL), 128-well diet tray assay; settings: 168 h, 50 μg/cm^2 on artificial diet, second instar larvae, 25° C., five to seven days, average of eight wells, read-out: CL % Control (or Mortality) rating
Procedure, shortened: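 Second-instar T. ni larvae (one to five per well) were placed on artificial diet treated with 50 μg/cm^2 compound, applied in 90:10 acetone-water and dried. Trays were held five to seven days at 25 °C under 14:10 light-dark. Percent mortality per well was averaged over eight wells.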

[3] = tested on: Green Peach Aphid (Myzus persicae, MYZUPE); experiment: Bioassay on Green Peach Aphid (GPA), foliar spray on cabbage seedlings; settings: 72 h, 200 ppm spray on infested cabbage seedlings, three days, Abbott corrected % control, read-out: GPA % Control (or Mortality) rating
Description: Certain molecules disclosed in this document were tested against GPA using procedures described in the following example. In the reporting of the results, the “GPA & YFM Rating Table” was used (See Table Section).
Cabbage seedlings grown in 3-inch pots, with 2-3 small (3-5 cm) true leaves, were used as test substrate. The seedlings were infested with 20-50 GPA (wingless adult and nymph stages) one day prior to chemical application. Four pots with individual seedlings were used for each treatment. Test molecules (2 mg) were dissolved in 2 mL of acetone/methanol (1:1) solvent, forming stock solutions of 1000 ppm test molecule. The stock solutions were diluted 5× with 0.025% Tween 20 in water to obtain the solution at 200 ppm test molecule. A hand-held aspirator-type sprayer was used for spraying a solution to both sides of […] leaves until runoff. Reference plants (solvent check) were sprayed with the diluent only containing 20% by volume of acetone/methanol (1:1) solvent. Treated plants were held in a holding room for three days at approximately 25° C. and ambient relative humidity (RH) prior to grading. Evaluation was conducted by counting the number of live aphids per plant under a microscope. Percent control was measured using Abbott's correction formula (W. S. Abbott, “A Method of Computing the Effectiveness of an Insecticide” J. Econ. Entomol. 18 (1925), pp. 265-267) as follows. Corrected % Control=100*(X−Y)/X where X=No. of live aphids on solvent check plants and Y=No. of live aphids on treated plants. The results are indicated in the table entitled “Table ABC: Biological Results” (See Table Section).

[4] = tested on: Yellow Fever Mosquito (Aedes aegypti, AEDSAE); experiment: Bioassay on Yellow Fever Mosquito (YFM) larvae, 96-well plate; settings: about 1 day-old larvae, room temperature, 3 days, scored on mortality
Procedure, shortened: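 Compound stocks at 4000 ppm in DMSO were diluted with 90:10 water/acetone, and 15 μL aliquots were dispensed into six replicate plates. About 1-day-old larvae in liver-powder water were added per well. Plates were covered and held at room temperature for 3 days before each well was scored for mortality.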

Compound | mortality at 50 µg/cm2 [1] [%] | mortality at 50 µg/cm2 [2] [%] | mortality at 200 ppm [3] [%] | YFM % Control (or Mortality) rating [4]
CCCNC(=O)c1cc(NC(=O)[C@H]2[C@H](c3cc(Cl)cc(Cl)c3)C2(Cl)Cl)ccc1Cl (relative stereo) [F56, trans-2-Chloro-5-(2,2-dichloro-3-(3,5-dichlorophenyl)cyclopropane-1-carboxamido)-N-propylbenzamide] | 50 to 100 | 50 to 100 | 80 to 100 | A (80-100)
C[C@H](CSCC(F)(F)F)NC(=O)c1cc(NC(=O)C2C(c3cc(Cl)cc(Cl)c3)C2(Cl)Cl)ccc1Cl (stereo in doubt) [PF3, trans-2-Chloro-5-(2,2-dichloro-3-(3,5-dichlorophenyl)cyclopropane-1-carboxamido)-N—((R)-1-((2,2,2-trifluoroethyl)thio)propan-2-yl)benzamide] | 50 to 100 | 50 to 100 | 80 to 100 | B (More than 0-Less than 80)
O=C(NOCC1CC1(F)F)c1cc(NC(=O)C2C(c3cc(Cl)cc(Cl)c3)C2(Cl)Cl)ccc1Cl (stereo not drawn) [F21, trans-N-2-Chloro-5-(2,2-dichloro-3-(3,5-dichlorophenyl)cyclopropane-1-carboxamido)-N-((2,2-difluorocyclopropyl)methoxy)benzamide] | 50 to 100 | 50 to 100 | 0 to 80 | B (More than 0-Less than 80)
CS(=O)(=O)CCNC(=O)c1cc(NC(=O)[C@H]2[C@H](c3cc(Cl)cc(Cl)c3)C2(Cl)Cl)ccc1Cl (relative stereo) [F75, trans-2-chloro-5-(2,2-dichloro-3-(3,5-dichlorophenyl)cyclopropane-1-carboxamido)-N-(2-(methylsulfonyl)ethyl)benzamide] | 50 to 100 | 50 to 100 | 80 to 100 | A (80-100)
O=C(NCc1cccnc1)c1cc(NC(=O)[C@H]2[C@H](c3cc(Cl)cc(Cl)c3)C2(Cl)Cl)ccc1Cl (relative stereo) [F6, trans-2-Chloro-5-(2,2-dichloro-3-(3,5-dichlorophenyl)cyclopropane-1-carboxamido)-N-(pyridin-3-ylmethyl)benzamide] | 50 to 100 | 50 to 100 | 0 to 80 | A (80-100)
CC(C)CNC(=O)c1cc(NC(=O)[C@H]2[C@H](c3cc(Cl)cc(Cl)c3)C2(Cl)Cl)ccc1Cl (relative stereo) [F30, trans-2-chloro-5-(2,2-dichloro-3-(3,5-dichlorophenyl)cyclopropane-1-carboxamido)-N-isobutylbenzamide] | 50 to 100 | 50 to 100 | 80 to 100 | A (80-100)
O=C(NCC(F)(F)F)c1cc(NC(=O)[C@H]2[C@H](c3cc(Cl)cc(Cl)c3)C2(Cl)Cl)ccc1Cl (relative stereo) [F4, trans-2-Chloro-5-(2,2-dichloro-3-(3,5-dichlorophenyl)cyclopropane-1-carboxamido)-N-(2,2,2-trifluoroethyl)benzamide] | 50 to 100 | 50 to 100 | 80 to 100 | A (80-100)
CCNC(=O)c1cc(NC(=O)[C@H]2[C@H](c3cc(Cl)cc(Cl)c3)C2(Cl)Cl)ccc1Cl (relative stereo) [F46, trans-2-Chloro-5-(2,2-dichloro-3-(3,5-dichlorophenyl)cyclopropane-1-carboxamido)-N-ethylbenzamide] | 50 to 100 | 50 to 100 | 80 to 100 | A (80-100)
O=C(NCC(O)C(F)(F)F)c1cc(NC(=O)[C@H]2[C@H](c3cc(Cl)cc(Cl)c3)C2(Cl)Cl)ccc1Cl (relative stereo) [PF16, trans-2-Chloro-5-(2,2-dichloro-3-(3,5-dichlorophenyl)cyclopropane-1-carboxamido)-N-(3,3,3-trifluoro-2-hydroxypropyl)benzamide] | 50 to 100 | 50 to 100 | 80 to 100 | A (80-100)
O=C(NCCC(F)(F)F)c1cc(NC(=O)[C@H]2[C@H](c3cc(Cl)cc(Cl)c3)C2(Cl)Cl)ccc1Cl (relative stereo) [F40, trans-2-Chloro-5-(2,2-dichloro-3-(3,5-dichlorophenyl)cyclopropane-1-carboxamido)-N-(3,3,3-trifluoropropyl)benzamide] | 50 to 100 | 50 to 100 | 80 to 100 | A (80-100)
O=C(NCc1ccc(C(F)(F)F)cc1)c1cc(NC(=O)[C@H]2[C@H](c3cc(Cl)cc(Cl)c3)C2(Cl)Cl)ccc1Cl (relative stereo) [F41, trans-2-Chloro-5-(2,2-dichloro-3-(3,5-dichlorophenyl)cyclopropane-1-carboxamido)-N-(4-(trifluoromethyl)benzyl)benzamide] | 50 to 100 | 50 to 100 | 0 | A (80-100)
